The NIST ThermoML archive (doi:10.1016/j.jct.2011.12.013)

Assay: xn = mol fraction of the nth substance listed
Settings: Liquid, Custom Made Vibrating Tube Densimeter

C=C1CC[C@H]2C[C@@H]1C2(C)C [(1S,5S)-6,6-dimethyl-2-methylenebicyclo[3.1.1]heptane] + C=C(C)[C@H]1CC=C(C)CC1
mass density [kg/m3]
Settings | x2 = 0 | x2 = 0.11 | x2 = 0.2008 | x2 = 0.289 | x2 = 0.3961 | x2 = 0.4938 | x2 = 0.5906 | x2 = 0.6984 | x2 = 0.7993 | x2 = 0.9022
283.15 K, 20000 kPa | 891.3 | 888.1 | 885.4 | 882.8 | 879.6 | 876.8 | 873.9 | 870.9 | 868 | 864.5
283.15 K, 25000 kPa | 894.2 | 891 | 888.3 | 885.7 | 882.4 | 879.6 | 876.8 | 873.7 | 870.8 | 867.8
283.15 K, 30000 kPa | 897 | 893.9 | 891 | 888.4 | 885.2 | 882.5 | 879.7 | 876.5 | 873.6 | 870.4
283.15 K, 35000 kPa | 899.9 | 896.7 | 893.8 | 891.2 | 887.9 | 885.2 | 882.4 | 879.3 | 876.5 | 873.3
283.15 K, 40000 kPa | 902.6 | 899.3 | 896.3 | 894 | 890.6 | 887.8 | 885.1 | 881.9 | 879.2 | 876
298.15 K, 20000 kPa | 880.2 | 877 | 874.1 | 871.8 | 868.7 | 865.8 | 863 | 859.9 | 857.2 | 854.3
298.15 K, 25000 kPa | 883.3 | 880.1 | 877.2 | 874.9 | 871.8 | 868.9 | 866.2 | 863.1 | 860.2 | 857.3
298.15 K, 30000 kPa | 886.3 | 883.1 | 880.3 | 877.9 | 874.8 | 871.9 | 869.2 | 866.2 | 863.3 | 860.3
298.15 K, 35000 kPa | 889.3 | 886.1 | 883.5 | 881 | 877.7 | 874.9 | 872.3 | 869 | 866.5 | 863.4
298.15 K, 40000 kPa | 892.2 | 889 | 886.5 | 883.9 | 880.7 | 878 | 875.4 | 871.9 | 869 | 866.1
313.15 K, 20000 kPa | 869.3 | 866.1 | 863.5 | 860.9 | 857.8 | 854.9 | 852.4 | 849.3 | 846.5 | 843.7
313.15 K, 25000 kPa | 872.6 | 869.5 | 866.8 | 864.2 | 861.1 | 858.1 | 855.6 | 852.5 | 849.8 | 847
313.15 K, 30000 kPa | 875.7 | 872.6 | 870.1 | 867.5 | 864.3 | 861.4 | 858.7 | 855.7 | 852.9 | 849.9
313.15 K, 35000 kPa | 878.8 | 875.7 | 873.3 | 870.6 | 867.5 | 864.5 | 862 | 858.7 | 856.1 | 853
313.15 K, 40000 kPa | 882 | 878.8 | 876.7 | 873.8 | 870.7 | 867.8 | 865 | 861.8 | 859.1 | 856
328.15 K, 20000 kPa | 858.2 | 855.3 | 852.6 | 850.1 | 846.9 | 844.3 | 841.5 | 838.9 | 835.9 | 833.1
328.15 K, 25000 kPa | 861.7 | 858.7 | 856 | 853.5 | 850.4 | 847.7 | 844.9 | 842.1 | 839.4 | 836.4
328.15 K, 30000 kPa | 865.2 | 862.1 | 859.5 | 857 | 853.9 | 851.2 | 848.5 | 845.4 | 842.7 | 839.7
328.15 K, 35000 kPa | 868.7 | 865.5 | 862.7 | 860.3 | 857.2 | 854.6 | 851.9 | 848.7 | 846.1 | 843.1
328.15 K, 40000 kPa | 872.2 | 868.8 | 866.1 | 863.7 | 860.7 | 857.8 | 855.3 | 852 | 849.4 | 846.8
343.15 K, 20000 kPa | 847.7 | 844.7 | 842.1 | 839.6 | 836.7 | 834 | 831.4 | 828.4 | 825.7 | 822.7
343.15 K, 25000 kPa | 851.4 | 848.4 | 845.8 | 843.5 | 840.3 | 837.6 | 834.9 | 832 | 829.1 | 826.3
343.15 K, 30000 kPa | 855 | 852 | 849.4 | 846.9 | 843.9 | 841.2 | 838.6 | 835.6 | 832.9 | 830
343.15 K, 35000 kPa | 858.6 | 855.5 | 853.1 | 850.6 | 847.4 | 844.8 | 842.3 | 839.1 | 836.7 | 833.6
343.15 K, 40000 kPa | 862.1 | 859 | 856.7 | 854 | 850.8 | 848.3 | 845.6 | 842.4 | 840.1 | 837.1
358.15 K, 20000 kPa | 837 | 834 | 831.4 | 829.2 | 826.3 | 823.7 | 821 | 818.2 | 815.6 | 812.5
358.15 K, 25000 kPa | 840.9 | 838 | 835.4 | 833 | 830.1 | 827.4 | 824.9 | 822 | 819.4 | 816.7
358.15 K, 30000 kPa | 844.8 | 841.9 | 839.2 | 836.8 | 833.8 | 831.2 | 828.6 | 825.7 | 823 | 820
358.15 K, 35000 kPa | 848.7 | 845.7 | 843 | 840.6 | 837.5 | 834.9 | 832.4 | 829.4 | 826.8 | 823.9
358.15 K, 40000 kPa | 852.6 | 849.6 | 846.8 | 844.6 | 841.4 | 838.7 | 836.2 | 833.1 | 830.3 | 827.3
